According to PubChem BioAssay AID1259333 (Broad Institute, 2017):
Activity calls are given as the source filed them. How the calls were made is not given here; tested in parental BL2 cells.

Test system: cytotoxicity, CellTiter-Glo ATP luminescence
Assay: loss of cell viability by ATP content – CellTiter-Glo, cytotoxicity control, dose response (AID 1259333)

Row | SMILES | AC50
1 | O=C(c1ccc(-c2ccc([N+](=O)[O-])cc2)o1)N1CCCC(C(F)(F)F)C1 (stereo not given) | > 20 µM (inactive)
2 | COc1ccc(CC2C(=O)NC(C)C(=O)N(C)C3C(=O)N(C)C(Cc4ccc(O)c(c4)Oc4ccc(cc4)C3O)C(=O)NC(C)C(=O)NC(C)C(=O)N2C)cc1 (stereo not given) | 8.5 µM
3 | C[C@@H]1O[C@@H](O[C@H]2C[C@@H](O)[C@]3(CO)C4C(CC[C@]3(O)C2)[C@@]2(O)CC[C@H](C3=CC(=O)OC3)[C@@]2(C)C[C@H]4O)[C@H](O)[C@H](O)[C@H]1O (stereo not given in full) | 0.379 µM
4 | C=C1C(=O)C23C(O)C1CCC2C12CCCC(C)(COC(C)=O)C1C(O)C3(O)OC2 (stereo not given) | 5.52 µM
5 | O=C1NC2c3c(I)sc(I)c3C(=O)C2O1 (stereo not given) | 6.34 µM
6 | COc1ccc(C(=O)O/N=C2\C(=O)N(C)c3ccccc32)cc1 | 2 µM
7 | Cn1cnc([N+](=O)[O-])c1S(=O)(=O)Oc1cccc2ccccc12 | 1.91 µM
8 | O=C(Cc1ccccc1)N1CC[C@@H]2[C@H]1c1cc(C#Cc3cccc(F)c3)ccc1N[C@@H]2CO | 10.8 µM
9 | Cc1ccc(CN2CC(C(=O)Nc3ncc(C)s3)CC2=O)cc1 (stereo not given) | > 20 µM (inactive)
10 | CN(C)c1ccc(C=c2c3cc(O)ccc3n3c2cc(-c2ccccc2)[n+]3C)cc1 | 10.8 µM
11 | CNc1c2cccc(C)c2nc2c(C(=O)NCCN(C)C)cccc12 | 5.98 µM
12 | C[C@@H]1CC=CC[C@H](c2ccc(F)cc2)NC(=O)[C@@H](Cc2ccccc2)N(C)C(=O)c2ccccc2O1 (mixture of isomers) | > 20 µM (inactive)
13 | COc1ccc(-c2cc(-c3ccccc3)c(C#N)c(S(C)=O)n2)cc1 (stereo not given) | 3 µM
14 | O=C1/C(=C/c2ccccc2)C[C@@]2(O)C3Cc4ccc(O)c5c4[C@@]2(CCN3CC2CC2)[C@H]1O5 | 2.6 µM
15 | Cc1noc(C)c1S(=O)(=O)N(C)C[C@H]1OCc2ccccc2-c2c(n(C)c3ccccc23)C(=O)N([C@@H](C)CO)C[C@H]1C | 10.1 µM
16 | Cc1ccc(S(=O)(=O)C=CS(=O)(=O)c2ccc(C)cc2)cc1 | 3.97 µM
17 | O=C(Nc1ccc(C(F)(F)F)cc1)N1C[C@@H]2N[C@H](C1)C2c1ccc(-c2ccccc2)cc1 (stereo not given in full) | 8.09 µM
18 | CC(C)(C)CC(C)(C)c1ccc(O)c(Cc2ccc(Cl)cc2Cl)c1 | 7.05 µM
19 | Clc1ccc(CSC(Cn2ccnc2)c2ccc(Cl)cc2Cl)cc1 (stereo not given) | > 20 µM (inactive)
20 | C[C@H](CO)N1C[C@H](C)[C@H](CN(C)C(=O)Nc2cccc(Cl)c2Cl)OCc2ccccc2-c2c(n(C)c3ccccc23)C1=O | 2.51 µM

Row | SMILES | AC50
21 | C[C@H]1CN([C@@H](C)CO)C(=O)c2ccccc2-c2ccccc2CO[C@H]1CN(C)Cc1ccc(Oc2ccccc2)cc1 | > 20 µM (inactive)
22 | CCN1/C(=C/c2sc(-c3ccccc3C)c[n+]2C)Sc2ccccc21 | 9.06 µM
23 | COC(=O)C1=C(C)NC(C)=C(C(=O)OCCCN2CCC(c3ccccc3)(c3ccccc3)CC2)[C@H]1c1cccc([N+](=O)[O-])c1 | > 20 µM (inactive)
24 | CCCNC(=O)N1[C@H](C#N)[C@H](c2ccc(C3=CCCCC3)cc2)[C@@H]1CO | > 20 µM (inactive)
25 | CC12CCC3C(CCC4(O)CC(O)CCC34C=NO)C1(O)CCC2C1=COC(=O)C1 (stereo not given) | 0.322 µM
26 | COc1cc2cc(C(=O)N3CC(COS(C)(=O)=O)c4ccc(O)cc43)[nH]c2c(OC)c1OC (stereo not given) | 0.276 µM
27 | O=C(COC(=O)c1ccccc1C(=O)c1ccc(Cl)c([N+](=O)[O-])c1)NC1CC1 | 2.45 µM
28 | C[C@@H]1CN([C@H](C)CO)C(=O)c2ccccc2-c2ccccc2CO[C@@H]1CN(C)Cc1ccccc1C(F)(F)F | 6.93 µM
29 | COc1ccc2c3c([nH]c2c1)[C@H](CO)N(C(=O)Nc1ccc(F)cc1)CC31CCN(C(=O)c2ccccc2F)CC1 | 8.44 µM
30 | c1ccc2sc(-c3ccc4c(c3)OCO4)nc2c1 | 5.19 µM
31 | C[C@@H]1C[C@@H]([C@H](O)CC2CC(=O)NC(=O)C2)C(=O)[C@@H](C)C1 | > 20 µM (inactive)
32 | CC(C)c1c(O)ccc2c1CCC1C(C)(C)CCC[C@]21C (stereo not given in full) | 6.74 µM
33 | COc1ccc(CN(CCC(c2ccccc2)c2ccc(OC(C)C)cc2)C(=O)CCl)cc1OC (stereo not given) | 2.54 µM
34 | C[C@H](CO)N1C[C@H](C)[C@@H](CN(C)Cc2cccc(C(F)(F)F)c2)OCc2ccccc2-c2c(n(C)c3ccccc23)C1=O | 6.4 µM
35 | N#Cc1c(Br)n(C2OC(CO)C(O)C2O)c2ncnc(N)c12 (stereo not given) | 4.91 µM
36 | N#C[C@@H]1[C@H](c2ccc(C#CC3CCCC3)cc2)[C@@H](CO)N1C(=O)Nc1ccc(F)cc1 | > 20 µM (inactive)
37 | COc1cccc(C#Cc2ccc([C@H]3[C@@H](C#N)N(C(=O)c4ccccn4)[C@@H]3CO)cc2)c1 | 9.74 µM
38 | C[C@H]1CN([C@@H](C)CO)C(=O)c2c(c3ccccc3n2C)-c2ccccc2CO[C@@H]1CN(C)S(=O)(=O)c1ccc([N+](=O)[O-])cc1 | > 20 µM (inactive)
39 | C[C@@H]1CN([C@@H](C)CO)C(=O)c2c(c3ccccc3n2C)-c2ccccc2CO[C@H]1CN(C)S(=O)(=O)c1ccc([N+](=O)[O-])cc1 | > 20 µM (inactive)
40 | COc1ccc2c3c(n(C)c2c1)[C@H](CO)N(C(C)=O)CC31CN(Cc2ccc(Cl)cc2)C1 | > 20 µM (inactive)

Row | SMILES | AC50
41 | COc1ccc(/C=C/C(=O)Nc2ccccc2C(=O)O)cc1OC | > 20 µM (inactive)
42 | O=C(Nc1ccccc1F)N1CCCCN2[C@H](CO)[C@H](c3ccc(/C=C/c4ccccc4)cc3)[C@H]2C1 | > 20 µM (inactive)
43 | COCC(=O)N1[C@H](C#N)[C@H](c2ccc(C#Cc3ccccc3F)cc2)[C@H]1CO | 11.5 µM
44 | O=C(NCCC(c1ccccc1)c1ccco1)c1cccs1 (stereo not given) | > 20 µM (inactive)
45 | O=C1NC2C(O)C(O)C(O)C(O)C2c2cc3c(c(O)c21)OCO3 (stereo not given) | 9.05 µM
46 | C[C@@H]1CN([C@@H](C)CO)C(=O)c2ccccc2-c2ccccc2CO[C@@H]1CN(C)Cc1ccccc1C(F)(F)F | > 20 µM (inactive)
47 | Cc1cc(C)nc(Sc2ncnc(N)c2[N+](=O)[O-])n1 | > 20 µM (inactive)
48 | C[C@H](CO)N1C[C@H](C)[C@H](CN(C)S(=O)(=O)c2ccc([N+](=O)[O-])cc2)OCc2ccccc2-c2c(n(C)c3ccccc23)C1=O | > 20 µM (inactive)
49 | O=C1NC2c3c(Cl)sc(Cl)c3C(=O)C2O1 (stereo not given) | 3.72 µM
50 | COc1ccc(C[C@H]2NC[C@H](O)[C@H]2OC(C)=O)cc1 | 2.75 µM
51 | N#C[C@@H]1[C@H](c2ccc(C#CC3CCCC3)cc2)[C@H](CO)N1C(=O)Cc1ccccn1 | > 20 µM (inactive)
52 | C[C@@H]1CCCCO[C@H](CN(C)CC2CCCCC2)[C@H](C)CN([C@@H](C)CO)C(=O)c2cc(NC(=O)Nc3ccc(C(F)(F)F)cc3)ccc2O1 | 4.91 µM
53 | C[C@@H]1CN([C@@H](C)CO)C(=O)c2c(c3ccccc3n2C)-c2ccccc2CO[C@H]1CN(C)Cc1ccccc1 | 9.77 µM
54 | COc1cccc2c1C(=O)c1c(O)c3c(c(O)c1C2=O)C[C@@](O)(C(C)=O)C[C@@H]3OC1CC(N)C(O)C(C)O1 (stereo not given in full) | 2.72 µM
55 | c1cc(-c2cnn3cc(-c4ccc(OCCN5CCCCC5)cc4)cnc23)ccn1 | 1.44 µM
56 | CC(C)CCCCCCCCCCCCC(=O)NCC(=O)NC1C(O)C(O)C(Nc2ncnc3nc[nH]c23)OC1C(O)CO (stereo not given) | 9.02 µM
57 | COc1ccccc1C(=O)Nc1ccc2c(c1)C(=O)N(C)[C@H]1CC[C@H](CC(=O)Nc3cccc(C(C)C)c3)O[C@@H]1CO2 | > 20 µM (inactive)
58 | C[C@@H]1CN([C@@H](C)CO)C(=O)c2ccccc2-c2ccccc2CO[C@H]1CN(C)Cc1ccccc1C(F)(F)F | 7.28 µM
59 | N#C[C@@H]1[C@H](c2ccc(C#CC3CCCCC3)cc2)[C@H](CO)N1C(=O)Nc1ccc(F)cc1 | > 20 µM (inactive)
60 | COc1ccc(CNCCC(c2ccc(F)cc2)c2ccc(OC(C)C)cc2)cc1OC (stereo not given) | 5.85 µM
